From publication PMC9578392, “Safety, Tolerability, and Pharmacokinetics of the Novel Antiviral Agent Ensitrelvir Fumaric Acid, a SARS-CoV-2 3CL Protease Inhibitor, in Healthy Adults” (Antimicrobial Agents and Chemotherapy, 2022)
“Also recorded” adds a separate entry of the source. Where two headings read alike, the source gives them in different places.

Columns and labels:
[1] = Effect of food on pharmacokinetics (cohort C, 250 mg crossover); format: in vivo, human; conditions: for Tmax / AUC(0-inf) / AUC(0-t) / Cmax / half-life: human, plasma, oral, 250 mg; for AUC(0-inf): read-out: AUC0-inf, GLS mean; for AUC(0-t): read-out: AUC0-last, GLS mean; for Cmax: read-out: Cmax, GLS mean; for half-life: read-out: t1/2,z, GLS mean (converted)
Procedure: In part 1, Japanese participants were randomized to receive placebo or single dose of ensitrelvir (20, 70, 250, 500, 1,000, and 2,000 mg given to cohorts A, B, C, D, E, and J, respectively), suspended in 0.5% methylcellulose, in the fasted state. Additionally, in cohort C, the effect of food on the pharmacokinetics of ensitrelvir was investigated in a 2-group, 2-period crossover design by administering placebo or ensitrelvir (250 mg) in the fasted or fed (high-fat/high-calorie) state. In part 2, Japanese participants were randomized to receive placebo or multiple doses of ensitrelvir, suspended in 0.5% methylcellulose. The multiple-dose regimens were as follows: once-daily doses of ensitrelvir 375 mg on day 1 and 125 mg on days 2 to 5 (cohort F), or 750 mg on day 1 and 250 mg on days 2 to 6 (cohort G) in the fasted state. White participants were randomized to receive placebo or multiple doses of ensitrelvir. The multiple-dose regimens were as follows: once-daily doses of ensitrelvir 375 mg on day 1 and 125 mg on days 2 to 5 (cohort H). Each cohort included 11 participants. In cohort G, the effect of ensitrelvir on the pharmacokinetics of midazolam (syrup) was evaluated in an open label self-controlled crossover design. Midazolam 2 mg alone was administered 2 days prior to initiating ensitrelvir administration (on day −2) and midazolam was coadministered on day 6 with placebo or ensitrelvir in the fasted state to participants following once-daily doses for 5 days of placebo (days 1 to 5) or ensitrelvir (750 mg on day 1 and 250 mg on days 2–5).
Blood and urine samples were collected and analyzed at several time points to determine the concentration of ensitrelvir and midazolam. For single-dose administration, blood samples were collected predose (0 h) and 0.5, 1, 1.5, 2, 2.5, 3, 4, 6, 8, 12, 24, 36, 48, 60, 72, 96, 120, and 144 h postdose on day 1 at 20 mg (cohort A); predose (0 h) and 0.5, 1, 1.5, 2, 2.5, 3, 4, 6, 8, 12, 24, 36, 48, 60, 72, 96, 120, 144, 192, and 336 h postdose on day 1 at 70, 500, 1,000, and 2,000 mg (cohorts B, D, E, and J); and predose (0 h) and 0.5, 1, 1.5, 2, 2.5, 3, 4, 6, 8, 12, 24, 36, 48, 60, 72, 96, 120, and 144, 192, and 336 h postdose on days 1 and 15 at 250 mg (cohort C). Urine samples were collected at 0 to 24, 24 to 48, 48 to 72, 72 to 96, 96 to 120, and 120 to 144 h postdose on day 1 at 20, 70, 500, and 1,000 mg (cohorts A, B, D, and E); and 0 to 24, 24 to 48, 48 to 72, 72 to 96, 96 to 120, and 120 to 144 h postdose on days 1 and 15 at 250 mg (cohort C). For multiple-dose administration, blood samples were collected predose (0 h) and 0.5, 1, 1.5, 2, 2.5, 3, 4, 6, 8, and 12 h postdose on day 1; predose (0 h) on days 2 to 4; and predose (0 h) and 0.5, 1, 1.5, 2, 2.5, 3, 4, 6, 8, 12, and 24 h postdose on day 5 to evaluate the pharmacokinetics of ensitrelvir. Blood samples were also collected predose (0 h) and 0.5, 1, 2, 3, 4, 5, 6, 8, 12, and 24 h postdose on […] to evaluate the pharmacokinetics of midazolam.
Pharmacokinetic parameters were estimated based on the plasma concentration time data for ensitrelvir and midazolam by noncompartmental analysis (Phoenix WinNonlin version 6.2.1, Certara USA Inc., Princeton, NJ, USA). Dose proportionality assessments included the Cmax, area under the plasma concentration-time curve (AUC0-last, AUC0-inf, and AUC0-τ), and dose independency included t1/2,z, terminal elimination rate constant (λz), MRT, CL/F, and Vz/F. Urine pharmacokinetic parameters for ensitrelvir were calculated based on the urine concentrations of ensitrelvir and urine volume with noncompartmental analysis. Feu0-144 was calculated after single-dose administration. Additionally, renal clearance (CLR) was calculated using the cumulative amount of the drug excreted in urine and AUC in plasma for ensitrelvir. […]

[2] = Single ascending oral dose pharmacokinetics (part 1, plasma and urine, fasted); format: in vivo, human; conditions: for Feu0-144: urine; for AUC(0-inf) / AUC(0-t) / Cmax / MRT / Vd/F / half-life / Tmax / CL renal: human, oral; for AUC(0-inf) / AUC(0-t) / Cmax / MRT / Vd/F / half-life / Tmax: plasma; for Vd/F: read-out: Vz/F; for CL renal: urine and plasma
[3] = Cohort C/250 mg single dose, Fasted
[4] = Cohort C/250 mg single dose, Fed
[5] = cohort/dose A/20 mg, single dose, geometric mean (%CV)
[6] = cohort/dose B/70 mg, single dose, geometric mean (%CV)
[7] = cohort/dose C/250 mg, single dose, geometric mean (%CV)
[8] = cohort/dose D/500 mg, single dose, geometric mean (%CV)
[9] = cohort/dose E/1000 mg, single dose, geometric mean (%CV)
[10] = cohort/dose J/2000 mg, single dose, geometric mean (%CV)

Cn1cnc(Cn2c(=O)[nH]/c(=N\c3cc4cn(C)nc4cc3Cl)n(Cc3cc(F)c(F)cc3F)c2=O)n1 [Ensitrelvir, ensitrelvir fumaric acid]
reduction of Cmax by food intake ([1]; 250 mg single dose, fed vs fasted): 15%
effect of food intake on AUC ([1]; 250 mg single dose, high-fat/high-calorie meal): did not impact; also recorded: did not affect
AUC0-inf, GLS mean (90% CI) ratio (fed/fasted) ([1]; Cohort C/250 mg single dose): 1.0460 (1.0047/1.0891)
AUC0-last, GLS mean (90% CI) ratio (fed/fasted) ([1]; Cohort C/250 mg single dose): 1.0470 (1.0061/1.0895)
Cmax, GLS mean (90% CI) ratio (fed/fasted) ([1]; Cohort C/250 mg single dose): 0.8508 (0.7507/0.9644)
t1/2,z, GLS mean (90% CI) ratio (fed/fasted) ([1]; Cohort C/250 mg single dose): 0.9385 (0.8893/0.9905)
Tmax ([1]; 250 mg single dose, fasted state): 2.5 h
Tmax ([1]; 250 mg single dose, fed state): 8 h
AUC(0-inf) [1, 3]: 914 µg·h/mL
AUC(0-t) [1, 3]: 907 µg·h/mL
Cmax [1, 3]: 15200 ng/mL
half-life [1, 3]: 43.1 h
AUC(0-inf) [1, 4]: 956 µg·h/mL
AUC(0-t) [1, 4]: 949 µg·h/mL
Cmax [1, 4]: 13000 ng/mL
half-life [1, 4]: 40.5 h
CL/F [2, 5]: 0.219 (24.3) L/h
Feu0-144 [2, 5]: 12.9 (14.6) %
CL/F [2, 6]: 0.241 (15.7) L/h
Feu0-144 [2, 6]: 14.7 (27.4) %
CL/F [2, 7]: 0.274 (16.2) L/h
Feu0-144 [2, 7]: 16.0 (16.6) %
CL/F [2, 8]: 0.252 (16.1) L/h
Feu0-144 [2, 8]: 21.8 (15.4) %
CL/F [2, 9]: 0.297 (35.5) L/h
Feu0-144 [2, 9]: 19.4 (29.5) %
CL/F [2, 10]: 0.315 (22.2) L/h
AUC(0-inf) [2, 5]: 91.4 µg·h/mL
AUC(0-t) [2, 5]: 82 µg·h/mL
Cmax [2, 5]: 1700 ng/mL
MRT [2, 5]: 61.8 h
Vd/F [2, 5]: 13.5 L
half-life ([2]; cohort/dose A/20 mg, single dose, geometric mean (%CV), read-out: t1/2,z (converted)): 42.6 h
Tmax ([2]; cohort/dose A/20 mg, single dose, median (min, max), read-out: Tmax): 2.5 h
AUC(0-inf) [2, 6]: 291 µg·h/mL
AUC(0-t) [2, 6]: 289 µg·h/mL
Cmax [2, 6]: 5200 ng/mL
MRT [2, 6]: 67.3 h
Vd/F [2, 6]: 15.9 L
half-life ([2]; cohort/dose B/70 mg, single dose, geometric mean (%CV), read-out: t1/2,z (converted)): 45.7 h
Tmax ([2]; cohort/dose B/70 mg, single dose, median (min, max), read-out: Tmax): 1.5 h
AUC(0-inf) [2, 7]: 914 µg·h/mL
AUC(0-t) [2, 7]: 907 µg·h/mL
Cmax [2, 7]: 15200 ng/mL
MRT [2, 7]: 73.4 h
Vd/F [2, 7]: 17 L
half-life ([2]; cohort/dose C/250 mg, single dose, geometric mean (%CV), read-out: t1/2,z (converted)): 43.1 h
Tmax ([2]; cohort/dose C/250 mg, single dose, median (min, max), read-out: Tmax): 2.5 h
AUC(0-inf) [2, 8]: 1990 µg·h/mL
AUC(0-t) [2, 8]: 1980 µg·h/mL
Cmax [2, 8]: 32600 ng/mL
MRT [2, 8]: 68.2 h
Vd/F [2, 8]: 15.3 L
half-life ([2]; cohort/dose D/500 mg, single dose, geometric mean (%CV), read-out: t1/2,z (converted)): 42.2 h
Tmax ([2]; cohort/dose D/500 mg, single dose, median (min, max), read-out: Tmax): 2 h
AUC(0-inf) [2, 9]: 3370 µg·h/mL
AUC(0-t) [2, 9]: 3340 µg·h/mL
Cmax [2, 9]: 63800 ng/mL
MRT [2, 9]: 70.3 h
Vd/F [2, 9]: 20.6 L
half-life ([2]; cohort/dose E/1000 mg, single dose, geometric mean (%CV), read-out: t1/2,z (converted)): 48.1 h
Tmax ([2]; cohort/dose E/1000 mg, single dose, median (min, max), read-out: Tmax): 2.75 h
AUC(0-inf) [2, 10]: 6350 µg·h/mL
AUC(0-t) [2, 10]: 6310 µg·h/mL
Cmax [2, 10]: 96900 ng/mL
MRT [2, 10]: 67.4 h
Vd/F [2, 10]: 19.6 L
half-life ([2]; cohort/dose J/2000 mg, single dose, geometric mean (%CV), read-out: t1/2,z (converted)): 43.1 h
Tmax ([2]; cohort/dose J/2000 mg, single dose, median (min, max), read-out: Tmax): 4 h
half-life ([2]; single dose 20 to 2,000 mg, range across dose groups, read-out: geometric mean terminal elimination half-life (t1/2,z)): 42.2 to 48.1 h
Tmax ([2]; single dose 20 to 2,000 mg, range across dose groups, read-out: median time to maximum plasma concentration (Tmax)): 1.5 to 4 h
CL renal [2, 5]: 0.523 mL/min
CL renal [2, 6]: 0.668 mL/min
CL renal [2, 7]: 0.845 mL/min
CL renal [2, 8]: 1.04 mL/min
CL renal [2, 9]: 1.11 mL/min
